Results from article PMC8351955, “Targeting Mycobacterium tuberculosis response to environmental cues for the development of effective antitubercular drugs” (PLoS Biology, 2021).
Several values for one entry are separate records, joined by “and”; a condition that tells them apart may be missing. Identical values can stand only once. Like-named read-outs stand apart in the source and are kept apart here.

Legend:
[1] = Pharmacokinetic assay, single oral dose in CD-1 mice; assay type: in vivo; details: female; for AUC(0-t): mouse, plasma, CD-1 mice, read-out: plasma AUC0–5h
Experimental: Blood samples were collected in K2EDTA-coated tubes predose, 0.5, 1, 3, and 5 hours post-dose, placed on ice, and centrifuged to recover plasma. The recovered plasma was kept at −80°C as needed prior to analysis, which was performed as previously described. In brief, a Sciex Applied Biosystems Qtrap 4000 triple-quadrupole mass spectrometer coupled to an Agilent 1260 HPLC system was used for HPLC coupled to tandem mass spectrometry (LC–MS/MS) quantitative analysis of the samples, with chromatography attained using an Agilent Zorbax SB-C8 column (2.1 × 30 mm; particle size, 3.5 μm) and a reverse-phase gradient elution. The aqueous mobile phase consisted of Milli-Q deionized water with 0.1% formic acid (A), while the organic mobile phase was 0.1% formic acid in acetonitrile (B). The gradient setup was as follows: 5% to 90% B over 2 minutes, 1 minute at 90% B, then an immediate drop to 5% B and an additional 1 minute at 5% B. Quantification of molecules was carried out via multiple reaction monitoring of parent/daughter transitions in electrospray positive ionization mode, and sample analyses accepted if quality control and standard samples had concentrations within 20% of the nominal concentration. Preparation of compounds for generation of standard curves and quality control spiking solutions were performed as previously described. Data were processed using Analyst software (Version 1.6.2; Applied Biosystems Sciex, Framingham, MA).

[2] = system: macrophage phagosomal [Cl−] in BMDMs; assay: Phagosomal maturation assay, BAC/AF594 beads (Cl− readout); assay type: cell-based, mouse
Experimental: Carboxyfluorescein (pH readout), DQ-BSA/Alexa Fluor 594 (AF594) (proteolysis readout), and BAC/AF594 (Cl^− readout) beads were generated essentially as previously described, except that 10,10′-Bis[3-carboxylpropyl]-9,9′-biacridinium dinitrate di-NHS ester (BAC-SE) was purchased from emp Biotech LLC. BMDMs were isolated from C57BL/6J mice (The Jackson Laboratory) and maintained as described above. […] Assay buffer consisted of PBS (pH 7.2), supplemented with 5% FBS, 5 mM dextrose, 1 mM CaCl2, 2.7 mM KCl, and 0.5 mM MgCl2 in the case of assays with the carboxyfluorescein or DQ-BSA/AF594 beads. For assays with the BAC/AF594 beads, assay buffer consisted of PBS (pH 7.2), supplemented with 5% FBS, 5 mM dextrose, 1 mM calcium acetate, 1.35 mM K2SO4, and 0.5 mM MgSO4 [9]. Sensor beads at approximately 2 to 5 beads/macrophage in appropriate assay buffer were finally added, with data acquisition on a Biotek Synergy H1 microplate reader with bottom read signal detection started within 2 to 3 minutes of bead addition. Excitation/emission wavelengths were 450 nm/520 nm and 490 nm/520 nm for carboxyfluorescein, 490 nm/520 nm for DQ-BSA, 365 nm/505 nm for BAC, and 590 nm/617 nm for AF594. Each experiment was run with a total of 3 to 5 replicate wells/condition, with temperature maintained at 37°C throughout the assay. Wells were read every 2 minutes for 2 hours for the carboxyfluorescein bead assays, every 2 minoutes for 4 hours for the DQ-BSA/AF594 bead assays, and every 1 minute for 2 hours for the BAC/AF594 bead assays. Analyses of the results were performed as previously described.

SMILES: CCSc1ncc(CN2CCN(c3nc4ccccc4o3)CC2)cn1 [C6, 2-(4-((2-(ethylthio)pyrimidin-5-yl)methyl)piperazin-1-yl)benzo[d]oxazole]
- Kp at 5 h ([1]; CD-1, mouse, 5-hour partitioning between plasma and lung, 25 mg/kg po, read-out: Clung/Cplasma): 0.86
- AUC(0-t) ([1]; single 5 mg/kg po dose): 5480 ng·h/mL
- AUC(0-t) ([1]; single 25 mg/kg po dose): 25700 ng·h/mL
- Effect on increase in [Cl−] during macrophage phagosomal maturation ([2]; 10 μM, uninfected BMDMs): no significant effect
- AF594/BAC fluorescence, Average ([2]; Time 0 minutes): 0.6122
- AF594/BAC fluorescence, replicates ([2]; Time 0 minutes): 0.5839 and 0.6162 and 0.6235 and 0.6146 and 0.6227
- AF594/BAC fluorescence, Average ([2]; Time 1 minutes): 0.5459
- AF594/BAC fluorescence, replicates ([2]; Time 1 minutes): 0.5421 and 0.5573 (2×) and 0.546 and 0.5266
- AF594/BAC fluorescence, Average ([2]; Time 2 minutes): 0.5408
- AF594/BAC fluorescence, replicates ([2]; Time 2 minutes): 0.5319 and 0.5419 and 0.5358 and 0.5431 and 0.5513
- AF594/BAC fluorescence, Average ([2]; Time 3 minutes): 0.5344
- AF594/BAC fluorescence, replicates ([2]; Time 3 minutes): 0.5344 and 0.5364 and 0.543 and 0.5118 and 0.5462
- AF594/BAC fluorescence, Average ([2]; Time 4 minutes): 0.5424
- AF594/BAC fluorescence, replicates ([2]; Time 4 minutes): 0.5625 and 0.5432 and 0.5412 and 0.5272 and 0.538
- AF594/BAC fluorescence, Average ([2]; Time 5 minutes): 0.5329
- AF594/BAC fluorescence, replicates ([2]; Time 5 minutes): 0.545 and 0.5366 and 0.532 and 0.5179 and 0.5328
- AF594/BAC fluorescence, Average ([2]; Time 7 minutes): 0.5364
- AF594/BAC fluorescence, replicates ([2]; Time 7 minutes): 0.548 and 0.5294 and 0.5467 and 0.5183 and 0.5395
- AF594/BAC fluorescence, Average ([2]; Time 9 minutes): 0.5382
- AF594/BAC fluorescence, replicates ([2]; Time 9 minutes): 0.5413 and 0.5472 and 0.5302 and 0.5353 and 0.5369
- AF594/BAC fluorescence, Average ([2]; Time 11 minutes): 0.548
- AF594/BAC fluorescence, replicates ([2]; Time 11 minutes): 0.555 and 0.5414 and 0.5741 and 0.5202 and 0.5492
- AF594/BAC fluorescence, Average ([2]; Time 13 minutes): 0.5691
- AF594/BAC fluorescence, replicates ([2]; Time 13 minutes): 0.5666 and 0.5688 and 0.5877 and 0.5543 and 0.5682
- AF594/BAC fluorescence, Average ([2]; Time 15 minutes): 0.5821
- AF594/BAC fluorescence, replicates ([2]; Time 15 minutes): 0.5799 and 0.5786 and 0.5955 and 0.5676 and 0.5889
- AF594/BAC fluorescence, Average ([2]; Time 17 minutes): 0.5935
- AF594/BAC fluorescence, replicates ([2]; Time 17 minutes): 0.5853 and 0.6046 and 0.6099 and 0.5629 and 0.6045
- AF594/BAC fluorescence, Average ([2]; Time 19 minutes): 0.603
- AF594/BAC fluorescence, replicates ([2]; Time 19 minutes): 0.5752 and 0.6161 and 0.6348 and 0.5964
- AF594/BAC fluorescence, Average ([2]; Time 21 minutes): 0.6193
- AF594/BAC fluorescence, Average ([2]; Time 23 minutes): 0.618
- AF594/BAC fluorescence, Average ([2]; Time 25 minutes): 0.6229
- AF594/BAC fluorescence, Average ([2]; Time 27 minutes): 0.6239
- AF594/BAC fluorescence, Average ([2]; Time 29 minutes): 0.6453
- AF594/BAC fluorescence, Average ([2]; Time 31 minutes): 0.6313
- AF594/BAC fluorescence, Average ([2]; Time 33 minutes): 0.6482
- AF594/BAC fluorescence, Average ([2]; Time 35 minutes): 0.6392
- AF594/BAC fluorescence, Average ([2]; Time 37 minutes): 0.6481
- AF594/BAC fluorescence, Average ([2]; Time 39 minutes): 0.6418
- AF594/BAC fluorescence, Average ([2]; Time 41 minutes): 0.6532
- AF594/BAC fluorescence, Average ([2]; Time 43 minutes): 0.6524
- AF594/BAC fluorescence, Average ([2]; Time 45 minutes): 0.6458
- AF594/BAC fluorescence, Average ([2]; Time 46 minutes): 0.6438
- AF594/BAC fluorescence, Average ([2]; Time 47 minutes): 0.6518
- AF594/BAC fluorescence, Average ([2]; Time 48 minutes): 0.6423
- AF594/BAC fluorescence, Average ([2]; Time 49 minutes): 0.6502
- AF594/BAC fluorescence, Average ([2]; Time 50 minutes): 0.6427
- AF594/BAC fluorescence, Average ([2]; Time 51 minutes): 0.6412
- AF594/BAC fluorescence, Average ([2]; Time 52 minutes): 0.6437
- AF594/BAC fluorescence, Average ([2]; Time 53 minutes): 0.6415
- AF594/BAC fluorescence, Average ([2]; Time 54 minutes): 0.6535
- AF594/BAC fluorescence, Average ([2]; Time 55 minutes): 0.646
- AF594/BAC fluorescence, Average ([2]; Time 56 minutes): 0.6496
- AF594/BAC fluorescence, Average ([2]; Time 57 minutes): 0.6559
- AF594/BAC fluorescence, Average ([2]; Time 58 minutes): 0.6523
- AF594/BAC fluorescence, Average ([2]; Time 59 minutes): 0.6473
- AF594/BAC fluorescence, Average ([2]; Time 60 minutes): 0.6412
- AF594/BAC fluorescence, Average ([2]; Time 61 minutes): 0.6401
- AF594/BAC fluorescence, Average ([2]; Time 62 minutes): 0.6424
- AF594/BAC fluorescence, Average ([2]; Time 63 minutes): 0.6429
- AF594/BAC fluorescence, Average ([2]; Time 64 minutes): 0.6497
- AF594/BAC fluorescence, Average ([2]; Time 65 minutes): 0.6542
- AF594/BAC fluorescence, Average ([2]; Time 66 minutes): 0.6415
- AF594/BAC fluorescence, Average ([2]; Time 67 minutes): 0.656
- AF594/BAC fluorescence, Average ([2]; time 6 minutes): 0.5344
- AF594/BAC fluorescence, replicates ([2]; time 6 minutes): 0.55 and 0.5263 and 0.5408 and 0.5119 and 0.5432
- AF594/BAC fluorescence, Average ([2]; time 8 minutes): 0.5381
- AF594/BAC fluorescence, replicates ([2]; time 8 minutes): 0.5319 and 0.5466 and 0.5386 and 0.538 and 0.5353
- AF594/BAC fluorescence, Average ([2]; time 10 minutes): 0.5471
- AF594/BAC fluorescence, replicates ([2]; time 10 minutes): 0.5453 and 0.5491 and 0.5758 and 0.5298 and 0.5354
- AF594/BAC fluorescence, Average ([2]; time 12 minutes): 0.5563
- AF594/BAC fluorescence, replicates ([2]; time 12 minutes): 0.5501 and 0.57 and 0.5742 and 0.5198 and 0.5673
- AF594/BAC fluorescence, Average ([2]; time 14 minutes): 0.5706
- AF594/BAC fluorescence, replicates ([2]; time 14 minutes): 0.5628 and 0.5864 and 0.5841 and 0.542 and 0.5776
- AF594/BAC fluorescence, Average ([2]; time 16 minutes): 0.5854
- AF594/BAC fluorescence, replicates ([2]; time 16 minutes): 0.5806 and 0.5704 and 0.6264 and 0.5665 and 0.5832
- AF594/BAC fluorescence, Average ([2]; time 18 minutes): 0.5961
- AF594/BAC fluorescence, replicates ([2]; time 18 minutes): 0.5808 and 0.5961 and 0.6277 and 0.5767 and 0.5992
- AF594/BAC fluorescence, Average ([2]; time 20 minutes): 0.6147
- AF594/BAC fluorescence, replicates ([2]; time 20 minutes): 0.6043
- AF594/BAC fluorescence, Average ([2]; time 22 minutes): 0.6194
- AF594/BAC fluorescence, Average ([2]; time 24 minutes): 0.6332
- AF594/BAC fluorescence, Average ([2]; time 26 minutes): 0.631
- AF594/BAC fluorescence, Average ([2]; time 28 minutes): 0.638
- AF594/BAC fluorescence, Average ([2]; time 30 minutes): 0.6338
- AF594/BAC fluorescence, Average ([2]; time 32 minutes): 0.6382
- AF594/BAC fluorescence, Average ([2]; time 34 minutes): 0.6489
- AF594/BAC fluorescence, Average ([2]; time 36 minutes): 0.6508
- AF594/BAC fluorescence, Average ([2]; time 38 minutes): 0.652
- AF594/BAC fluorescence, Average ([2]; time 40 minutes): 0.6508
- AF594/BAC fluorescence, Average ([2]; time 42 minutes): 0.6499
- AF594/BAC fluorescence, Average ([2]; time 44 minutes): 0.6458
